We go through 20 compounds from patent US11414431B2, “Substituted pyrazolo[1,5-a]pyrimidines as TYK2 inhibitors” (Nimbus Lakshmi, Inc., priority 2018, dated 2022).

Like-named read-outs stand apart in the source and are kept apart here.

One assay has as its target JAK2 (Homo sapiens (Human), UniProt O60674). The assay can be described thus: JAK2 Radioactive Kinase Assay. The conditions noted are these: for inhibition at 10 µM: read-out: JAK2 (% Inhibition at 10 μM). The assay is classed as biochemical. On the procedure: Peptide substrate, [[…]], (20 μM) was prepared in reaction buffer (20 mM Hepes pH 7.5, 10 mM MgCl2, 1 mM EGTA, 0.02% Brij35, 0.02 mg/mL BSA, 0.1 mM […], 2 mM DTT, 1% DMSO. TYK2 (Invitrogen) kinase was added, followed by compounds in DMSO. 33PATP was added to initiate the reaction in ATP at […]. Kinase reaction was incubated for 120 min at room temp and reactions were spotted onto P^81 ion exchange paper (Whatman #3698-915), and then washed extensively in 0.75% phosphoric acid, prior to reading the radioactivity counts. For JAK2 (Invitrogen) kinase assay the peptide substrate poly[Glu:Tyr] (4:1), 0.2 mg/mL was used, in the reaction carried out the same as for TYK2.

For assay [1], the system named is IL-12 induced STAT4 phosphorlyation mediated by TYK2/JAK2. The assay can be described thus: IL-12 Induced pSTAT4 in Human PBMC. The assay is classed as cell-based. The settings on record: 1.7 ng/mL IL-12 for 30 minutes. Put shortly:
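Thawed human PBMC pre-incubated with compound 1 hr at 37° C (0.1% DMSO final), then stimulated 30 minutes with IL-12 at 1.7 ng/mL final. pSTAT4 and total STAT4 measured in cell lysates with MSD reagents.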

The next assay concerns the target TYK2 (Homo sapiens (Human), UniProt P29597). The assay can be described thus: TYK2 Radioactive Kinase Assay. The assay is classed as biochemical. The conditions noted are these: read-out: TYK2 (% Inhibition at 10 μM).
In assay [2] the target is human TYK2 (JH2domain-pseudokinase) (Homo sapiens (Human), UniProt P29597). The experiment in a line: TYK2 JH2 Domain Binding Assay (KINOMEscan). The settings on record: 11-point 3-fold dilution, top concentration 30,000 nM, duplicate; read-out: hTYK2_JH2_Binding (Kd; nM). Put shortly:
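KINOMEscan competition binding: HEK293-expressed NFkB-fused TYK2 JH2 (G556–D888), DNA-tagged, against immobilized ligand beads, 1 h shaking at room temperature, 0.9% DMSO. Bound kinase quantified by qPCR.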

The mark [3] stands for this setting: compound at 10 μM, substrate poly[Glu:Tyr] (4:1).
The mark [4] stands for this setting: compound at 10 μM, peptide substrate […].

JAK2, sequence (O60674 whole entry): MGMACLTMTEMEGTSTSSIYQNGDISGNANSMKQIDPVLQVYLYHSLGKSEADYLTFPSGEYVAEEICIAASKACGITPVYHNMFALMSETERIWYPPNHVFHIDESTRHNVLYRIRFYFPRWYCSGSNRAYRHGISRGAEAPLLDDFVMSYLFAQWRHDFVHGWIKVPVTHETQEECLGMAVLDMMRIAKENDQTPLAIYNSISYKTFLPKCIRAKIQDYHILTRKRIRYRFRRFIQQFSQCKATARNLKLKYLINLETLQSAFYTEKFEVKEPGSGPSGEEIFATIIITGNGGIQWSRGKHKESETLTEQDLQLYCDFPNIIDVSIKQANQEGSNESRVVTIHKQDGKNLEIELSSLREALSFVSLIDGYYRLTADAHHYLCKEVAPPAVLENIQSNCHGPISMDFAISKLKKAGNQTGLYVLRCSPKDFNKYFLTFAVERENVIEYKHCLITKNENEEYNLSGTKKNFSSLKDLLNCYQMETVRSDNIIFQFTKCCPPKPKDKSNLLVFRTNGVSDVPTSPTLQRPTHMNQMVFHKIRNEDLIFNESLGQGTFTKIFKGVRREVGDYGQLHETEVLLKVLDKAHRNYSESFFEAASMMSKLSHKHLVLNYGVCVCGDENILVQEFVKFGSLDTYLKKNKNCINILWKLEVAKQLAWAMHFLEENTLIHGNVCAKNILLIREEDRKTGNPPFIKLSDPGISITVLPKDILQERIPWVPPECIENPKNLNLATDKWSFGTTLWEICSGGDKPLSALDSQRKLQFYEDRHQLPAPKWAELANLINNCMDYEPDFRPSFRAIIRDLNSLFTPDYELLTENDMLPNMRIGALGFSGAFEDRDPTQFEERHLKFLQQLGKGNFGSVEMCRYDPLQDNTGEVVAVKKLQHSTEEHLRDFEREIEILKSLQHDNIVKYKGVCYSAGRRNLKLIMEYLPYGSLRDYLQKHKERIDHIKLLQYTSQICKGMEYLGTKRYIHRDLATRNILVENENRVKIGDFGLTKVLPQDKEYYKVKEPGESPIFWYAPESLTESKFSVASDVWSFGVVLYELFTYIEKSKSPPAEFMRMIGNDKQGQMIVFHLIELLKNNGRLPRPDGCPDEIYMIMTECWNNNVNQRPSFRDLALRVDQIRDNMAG
human TYK2 (JH2domain-pseudokinase), sequence (P29597 556-888): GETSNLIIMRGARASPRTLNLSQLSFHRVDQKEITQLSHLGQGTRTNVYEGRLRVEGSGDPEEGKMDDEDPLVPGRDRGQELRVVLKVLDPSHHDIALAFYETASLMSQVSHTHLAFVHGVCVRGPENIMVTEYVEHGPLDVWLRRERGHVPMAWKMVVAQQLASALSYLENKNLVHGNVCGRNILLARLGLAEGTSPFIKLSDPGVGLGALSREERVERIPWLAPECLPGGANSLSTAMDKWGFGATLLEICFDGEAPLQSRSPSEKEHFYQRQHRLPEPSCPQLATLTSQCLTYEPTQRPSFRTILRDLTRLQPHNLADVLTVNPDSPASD
TYK2, sequence (P29597 whole entry, the tested form may be a part): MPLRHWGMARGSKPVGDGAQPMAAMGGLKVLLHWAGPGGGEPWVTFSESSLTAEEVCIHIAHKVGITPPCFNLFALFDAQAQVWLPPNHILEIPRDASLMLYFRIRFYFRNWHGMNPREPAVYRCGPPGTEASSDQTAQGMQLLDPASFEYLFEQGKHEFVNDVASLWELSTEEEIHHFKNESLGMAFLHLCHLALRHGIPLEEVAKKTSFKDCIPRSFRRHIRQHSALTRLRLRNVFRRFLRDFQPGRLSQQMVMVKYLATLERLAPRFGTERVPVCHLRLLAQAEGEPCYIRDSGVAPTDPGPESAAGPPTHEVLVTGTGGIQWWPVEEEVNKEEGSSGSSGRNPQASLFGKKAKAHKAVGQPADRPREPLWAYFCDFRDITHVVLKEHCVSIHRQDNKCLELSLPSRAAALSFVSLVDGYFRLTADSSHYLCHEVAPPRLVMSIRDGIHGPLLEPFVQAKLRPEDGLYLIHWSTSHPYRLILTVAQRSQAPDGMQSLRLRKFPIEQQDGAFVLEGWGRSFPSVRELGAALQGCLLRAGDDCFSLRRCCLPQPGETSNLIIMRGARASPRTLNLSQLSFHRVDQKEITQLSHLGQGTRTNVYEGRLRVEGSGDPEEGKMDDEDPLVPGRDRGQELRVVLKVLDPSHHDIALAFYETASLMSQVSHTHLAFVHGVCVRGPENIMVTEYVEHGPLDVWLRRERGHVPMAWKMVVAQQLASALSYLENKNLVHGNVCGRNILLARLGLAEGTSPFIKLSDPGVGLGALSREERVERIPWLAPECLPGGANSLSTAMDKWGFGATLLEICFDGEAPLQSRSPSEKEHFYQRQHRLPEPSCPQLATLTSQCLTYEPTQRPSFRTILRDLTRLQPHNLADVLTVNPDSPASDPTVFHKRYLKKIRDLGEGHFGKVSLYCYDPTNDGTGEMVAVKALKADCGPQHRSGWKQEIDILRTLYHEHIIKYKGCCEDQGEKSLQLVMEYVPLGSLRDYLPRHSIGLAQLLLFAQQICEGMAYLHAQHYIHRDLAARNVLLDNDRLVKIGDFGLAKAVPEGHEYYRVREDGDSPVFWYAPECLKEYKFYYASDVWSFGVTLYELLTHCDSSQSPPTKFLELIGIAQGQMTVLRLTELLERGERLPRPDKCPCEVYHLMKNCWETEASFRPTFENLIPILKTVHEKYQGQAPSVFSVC

As to `CNc1cc(Nc2cccn([C@H]3[C@@H]4COC[C@@H]43)c2=O)nc2c(C(=O)NC3C[C@H]3OC)cnn12` (mixture of isomers) [Compound I-24, 5-((1-((1R,5S,6r)-3-Oxabicyclo[3.1.0]hexan-6-yl)-2-oxo-1,2-dihydropyridin-3-yl)amino)-N-(2-methoxycyclopropyl)-7-(methylamino)pyrazolo[1,5-a]pyrimidine-3-carboxamide], the inhibition at 10 µM at JAK2 (setting [3]) and on TYK2 (setting [4]) was less than 50% throughout. In assay [1] (0.5 h), this compound came in with a 50% inhibitory concentration (IC50) of less than 0.1 µM.
For the compound `CNc1cc(Nc2cccn([C@H]3C[C@H](F)C3)c2=O)nc2c(C(=O)NC3CC[C@@H](OC)C3)cnn12` (mixture of isomers) [Compound I-66, 5-((1-((1r,3R)-3-Fluorocyclobutyl)-2-oxo-1,2-dihydropyridin-3-yl)amino)-N-(3-methoxycyclopentyl)-7-(methylamino)pyrazolo[1,5-a]pyrimidine-3-carboxamide], the inhibition at 10 µM on JAK2 (setting [3]) and at TYK2 (setting [4]) was less than 50% throughout.
As for `CNc1cc(Nc2cccn(C3CCC[C@@](C)(O)C3)c2=O)nc2c(C(=O)N[C@@H]3C[C@@H]3F)cnn12` (stereo partly drawn) [Compound I-6, N-((1R,2S)-2-Fluorocyclopropyl)-5-((1-(3-hydroxy-3-methylcyclohexyl)-2-oxo-1,2-dihydropyridin-3-yl)amino)-7-(methylamino)pyrazol[1,5-a]pyrimidine-3-carboxamide], the inhibition at 10 µM on JAK2 (setting [3]) and at TYK2 (setting [4]) was less than 50% each time.
Regarding `CNc1cc(Nc2cccn([C@H]3C[C@H](F)C3)c2=O)nc2c(C(=O)N[C@@H]3C[C@@H]3F)cnn12` [Compound I-7, 5-((1-((1r,3R)-3-Fluorocyclobutyl)-2-oxo-1,2-dihydropyridin-3-yl)amino)-N-((1R,2S)-2-fluorocyclopropyl)-7-(methylamino)pyrazolo[1,5-a]pyrimidine-3-carboxamide], the inhibition at 10 µM on JAK2 (setting [3]) and at TYK2 (setting [4]) was less than 50% each time. The compound also gave an IC50 in assay [1] (0.5 h) of less than 0.1 µM.
For `CNc1cc(-c2cn(C3CCOCC3)c3ncc(F)cc23)nc2c(C(=O)N[C@H]3CC[C@@H]3O)cnn12` [Compound I-18, 5-(5-Fluoro-1-(tetrahydro-2H-pyran-4-yl)-1H-pyrrolo[2,3-b]pyridin-3-yl)-N-((1S,2S)-2-hydroxycyclobutyl)-7-(methylamino)pyrazolo[1,5-a]pyrimidine-3-carboxamide], the inhibition at 10 µM at JAK2 (setting [3]) and on TYK2 (setting [4]) was less than 50% in each case. Besides, the Kd in assay [2] is less than 0.2 nM.
In the case of `CNc1cc(-c2cn(C3CCOCC3)c3ncc(F)cc23)nc2c(C(=O)N[C@@H]3CC[C@H]3O)cnn12` [Compound I-19, 5-(5-Fluoro-1-(tetrahydro-2H-pyran-4-yl)-1H-pyrrolo[2,3-b]pyridin-3-yl)-N-((1R,2R)-2-hydroxycyclobutyl)-7-(methylamino)pyrazolo[1,5-a]pyrimidine-3-carboxamide], the inhibition at 10 µM at JAK2 (setting [3]) and at TYK2 (setting [4]) was less than 50% in each case. In addition, the equilibrium dissociation constant (Kd) in assay [2] lay within 0.2 to 1 nM.
`CNc1cc(Nc2cccn(C3CC(F)(F)C3)c2=O)nc2c(C(=O)NC3C[C@H]3OC)cnn12` (stereo partly drawn) [Compound I-33, 5-((1-(3,3-Difluorocyclobutyl)-2-oxo-1,2-dihydropyridin-3-yl)amino)-N-((trans-1,2)-2-methoxycyclopropyl)-7-(methylamino)pyrazolo[1,5-a]pyrimidine-3-carboxamide]: the inhibition at 10 µM at JAK2 (setting [3]) and at TYK2 (setting [4]) was less than 50% each time. The compound also came in with an IC50 in assay [1] (0.5 h) of less than 0.1 µM.
Take `CNc1cc(Nc2cccn(C3CC(F)(F)C3)c2=O)nc2c(C(=O)N[C@@H]3CC[C@H](O)C3)cnn12` [Compound I-36, 5-((1-(3,3-Difluorocyclobutyl)-2-oxo-1,2-dihydropyridin-3-yl)amino)-N-((1R,3S)-3-hydroxycyclopentyl)-7-(methylamino)pyrazolo[1,5-a]pyrimidine-3-carboxamide]: the inhibition at 10 µM at JAK2 (setting [3]) and at TYK2 (setting [4]) was less than 50% each time. The Kd in assay [2] fell in the range of 0.2 to 1 nM.
For the compound `CNc1cc(Nc2cccn([C@H]3C[C@H](F)C3)c2=O)nc2c(C(=O)NC3CC[C@@H]3OC)cnn12` (stereo partly drawn) [Compound I-46, 5-((1-((1r,3S)-3-Fluorocyclobutyl)-2-oxo-1,2-dihydropyridin-3-yl)amino)-N-((trans-1,2)-2-methoxycyclobutyl)-7-(methylamino)pyrazolo[1,5-a]pyrimidine-3-carboxamide], the inhibition at 10 µM on JAK2 and at TYK2 was less than 50% in each case. The same compound registered an IC50 in assay [1] (0.5 h) of less than 0.1 µM.
As to `CNc1cc(Nc2cccn(C3CC(F)(F)C3)c2=O)nc2c(C(=O)N[C@@H]3CCC[C@@H](O)C3)cnn12` [Compound I-62, 5-((1-(3,3-Difluorocyclobutyl)-2-oxo-1,2-dihydropyridin-3-yl)amino)-N-((1R,3R)-3-hydroxycyclohexyl)-7-(methylamino)pyrazolo[1,5-a]pyrimidine-3-carboxamide], the inhibition at 10 µM on JAK2 (setting [3]) and at TYK2 (setting [4]) was less than 50% each time.
`CNc1cc(Nc2cccn(C3CC(F)(F)C3)c2=O)nc2c(C(=O)N[C@H]3CCC[C@H](O)C3)cnn12` [Compound I-63, 5-((1-(3,3-Difluorocyclobutyl)-2-oxo-1,2-dihydropyridin-3-yl)amino)-N-((1S,3S)-3-hydroxycyclohexyl)-7-(methylamino)pyrazolo[1,5-a]pyrimidine-3-carboxamide]: the inhibition at 10 µM at JAK2 (setting [3]) and at TYK2 (setting [4]) was less than 50% each time.
As for `CNc1cc(Nc2cccn(-c3ccccn3)c2=O)nc2c(C(=O)N[C@@H]3CC[C@@H](OC)C3)cnn12` [Compound I-67, N-((1R,3R)-3-Methoxycyclopentyl)-7-(methylamino)-5-((2-oxo-2H-[1,2′-bipyridin]-3-yl)amino)pyrazolo[1,5-a]pyrimidine-3-carboxamide], the inhibition at 10 µM on JAK2 (setting [3]) and at TYK2 (setting [4]) was less than 50% in each case.
Regarding `CNc1cc(Nc2cccn([C@H]3CC[C@H](OC)CC3)c2=O)nc2c(C(=O)N[C@@H]3CC[C@@H](OC)C3)cnn12` [Compound I-69, 5-((1-((1r,4R)-4-Methoxycyclohexyl)-2-oxo-1,2-dihydropyridin-3-yl)amino)-N-((1R,3R)-3-methoxycyclopentyl)-7-(methylamino)pyrazolo[1,5-a]pyrimidine-3-carboxamide], the “JAK2 (% Inhibition at 10 μM)” value on JAK2 (setting [3]) is listed as “A (percent inhibition at 10 μM lower than 50)”.
Regarding `CNc1cc(Nc2cccn([C@H]3CC[C@H](OC)CC3)c2=O)nc2c(C(=O)N[C@H]3CC[C@H](OC)C3)cnn12` [Compound I-70, 5-((1-((1 r,4S)-4-Methoxycyclohexyl)-2-oxo-1,2-dihydropyridin-3-yl)amino)-N-((1S,3S)-3-methoxycyclopentyl)-7-(methylamino)pyrazolo[1,5-a]pyrimidine-3-carboxamide], the “JAK2 (% Inhibition at 10 μM)” value at JAK2 (setting [3]) is on record as “A (percent inhibition at 10 μM lower than 50)”.
In the case of `CNc1cc(-c2cnc3n(CC(=O)N4CCOCC4)cccc2-3)nc2c(C(=O)NC3CC[C@@H]3OC)cnn12` (stereo partly drawn) [Compound I-962], the Kd in assay [2] is less than 0.2 nM. For the same compound, the IC50 in assay [1] lay within 0.5 to 1 µM.
In the same order, the values of `CNc1cc(-c2cnc3n(CC(=O)N4CC5(COC5)C4)cccc2-3)nc2c(C(=O)N[C@H]3CC[C@@H]3OC)cnn12` [Compound I-1012] are less than 0.2 nM and greater than 1 µM.
For `CNc1cc(-c2cnc3n(C4CCOCC4)cccc2-3)nc2c(C(=O)N[C@H]3CC[C@@H]3OC)cnn12` [Compound I-1014], in assay [2], the Kd was less than 0.2 nM. The compound also had an IC50 in assay [1] of less than 0.1 µM.
For the compound `CNc1cc(-c2cnc3n(C4CCOCC4)cccc2-3)nc2c(C(=O)N[C@@H]3CC[C@H]3OC)cnn12` [Compound I-1015], the Kd in assay [2] is less than 0.2 nM. In assay [1], this compound displayed an IC50 of 0.5 to 1 µM.
With `CNc1cc(-c2cnc3n(C4CCN(CCOC)CC4)cccc2-3)nc2c(C(=O)N[C@H]3CC[C@@H]3OC)cnn12` [Compound I-1020, N-((1S,2S)-2-methoxycyclobutyl)-5-(7-(1-(2-methoxyethyl)piperidin-4-yl)-7H-pyrrolo[2,3-b]pyridin-3-yl)-7-(methylamino)pyrazolo[1,5-a]pyrimidine-3-carboxamide], in assay [2], the Kd was less than 0.2 nM. In addition, the IC50 in assay [1] (0.5 h) was less than 0.1 µM.
In the case of “N-((cis-1,2)-2-Hydroxycyclobutyl)-5-(1-((1s,3R)-3-hydroxycyclobutyl)-1H-pyrrolo[2,3-b]pyridin-3-yl)-7-(methylamino)pyrazolo[1,5-a]pyrimidine-3-carboxamide [Compound I-111]”, the Kd in assay [2] is less than 0.2 nM. Moreover, the IC50 in assay [1] is 0.1 to 0.5 µM.
